Laboratory results taken from US9345789B2, “Specific inhibitors and active site probes for legumain” (The Board of Trustees of the Leland Stanford Junior …, priority 2009, dated 2016).
pIC50: −log10 of the molar value. Values joined by “and” are separate entries in the source; they are usually repeats but may differ in a detail not shown here. Equal entries are not always repeated. Where two headings read alike, the source gives them in different places.

Experiments:
recombinant legumain = recombinant legumain (Homo sapiens (Human), UniProt Q99538); assay: Inhibition of recombinant legumain, fluorogenic substrate Cbz-Ala-Ala-Asn-AMC; assay type: biochemical; conditions: for pIC50: at 60 min
Protocol: (§1) Assay buffers consist of 20 mM citric acid, 60 mM disodium hydrogen orthophosphate, 1 mM EDTA, 0.1% CHAPS, 4 mM DTT, pH 5.8 for legumain, 50 mM dihydrogen sodium orthophosphate, 1 mM EDTA, 5 mM DTT, pH 6.25 for cathepsin B and cathepsin Land 100 mM Tris, 0.1% CHAPS, 10% sucrose, 10 mM DTT, pH 7.4 for caspase-3.
Second-order inhibition rate constants were determined by following the previously described method in the literature (6). The pseudo-first-order rate constants (kobs) were obtained from plots of In vJ Vo versus time where Vo is the rate of hydrolysis of fluorogenic substrate and Vt is the rate of hydrolysis of substrate in the presence of the inhibitor. The second-order inhibition rate constants were calculated using the following equation. Second order rate constant=(kobs1[I])(1+[S]/Km)

caspase-3 = caspase-3 (Homo sapiens (Human), UniProt P42574); assay: Inhibition of caspase-3, Caspase-3 Substrate VII; conditions: read-out: Caspase-3 IC50; at 30 min
Protocol: (§5) Determination of IC50 against cysteine proteases and second order rate constants (kobs1[I]) for legumain Activity of legumain was measured with the fluorogenic substrate, Cbz-Ala-Ala-Asn-AMC (Anaspec), cathepsin B and cathepsin L was measured with Cbz-Phe-Arg-AMC (Bachem), and caspase-3 was measured with Caspase-3 Substrate VII (Calbiochem). […] The increase in fluorescence was continuously monitored every 30 see for 2.5 hrs with a Spectramax M5 fluorescent plate reader (Molecular Devices), and inhibition curves were recorded. […] ICso values with known broad-spectrum cathepsin inhibitor (JPM-OEt) and caspase-3 inhibitor (Z-DEVD-FMK) were also measured for comparison. All measurements were performed in triplicate and the average values were reported.

cathepsin B = cathepsin B (Homo sapiens (Human), UniProt P07858); assay: Inhibition of cathepsin B, fluorogenic substrate Cbz-Phe-Arg-AMC
Protocol: as §5

cathepsin L = cathepsin L (Homo sapiens (Human), UniProt P07711); assay: Inhibition of cathepsin L, fluorogenic substrate Cbz-Phe-Arg-AMC
Protocol: as §5

[1] = tested on: caspase 3, cathepsin B or cathepsin L; assay: Selectivity: inhibition of enzymes other than legumain; assay type: biochemical; conditions: for inhibitory effect against other enzymes: even at millimolar concentrations
Protocol: Disclosed below are activity based probes, i.e., they only label active enzyme. The probes are specific for legumain, and may be used to inhibit or inhibit and label active enzyme in situ. […] It may be said, for example, the activity towards legumain will be on the order of at least 3 times greater for legumain than caspase 3, cathepsin B or cathepsin L, preferably at least 10 times greater, and even 100 times greater.
as §1

legumain [2] = biological target: T1, legumain (Mus musculus (Mouse), UniProt O89017); assay: Labeling of active legumain in intact NIH-3T3 fibroblasts (SDS-PAGE, Cy5 scan); assay type: cell-based
Description: (§2) We treated intact NIH-3T3 and RAW 264.7 cells with LP-1 and LP-O respectively and monitored protein labeling using SDS-PAGE followed by scanning of the gel to detect the Cy5 fluorescence (FIG. 2). […] The identity of these off targets as cathepsins was confirmed by pre-treatment of cells with the broad-spectrum cathepsin inhibitor JPM-OEt (21) and further verified by immunoprecipitation (FIG. 16). Although some degree of cross reactivity of AOMK probes towards cathepsins has been reported (15), attempts to inhibit cathepsins with various aza-epoxide inhibitors have been unsuccessful (22). Therefore, the labeling of cathepsins by LP-I was particularly surprising. […] Furthermore, when cells were pre-treated with legumain inhibitors we observed more intense cathepsin labeling. This could be explained by the fact that cathepsins are known to be substrates for legumain (3, 23), thus legumain inhibition could result in increased levels of cathepsins and therefore increased non-specific labeling by the legumain probes.
(§3) RAW 264.7 cells (250,000 cells/well) and NIH-3T3 cells (200,000 cells/well) were seeded in a 24 well plate 24-30 hrs prior to labeling. Cells were pre-treated with appropriate inhibitors for 1.5 hrs and labeled by addition of each probe for 1 hrs; the final DMSO concentration was maintained less than 0.2%. Cells were washed with PBS buffer and lysed by addition of sample buffer. Crude lysates were collected and separated by 12.5% SDS-PAGE. Labeled proteins were analyzed by scanning the gel with a Typhoon flatbed laser scanner (ex. 633 nM/em. 680 nM). For lysates labeling, cytosolic lysates of RAW 264.7 cells were prepared as previously described (29). Lysates were diluted to 1 mg/ml in 50 mM citrate phosphate buffer (pH 4.5), 0.1% CHAPS, 5 mM DTT and subjected to direct labeling. 25˜L of lysates samples were pre-treated with inhibitors for 30 min and labeled with probes for another 30 min. The labeled samples were separated by 12.5% SDS-PAGE and analyzed by scanning the gel with a Typhoon flatbed scanner.
Target sequence in this assay (O89017 18-325): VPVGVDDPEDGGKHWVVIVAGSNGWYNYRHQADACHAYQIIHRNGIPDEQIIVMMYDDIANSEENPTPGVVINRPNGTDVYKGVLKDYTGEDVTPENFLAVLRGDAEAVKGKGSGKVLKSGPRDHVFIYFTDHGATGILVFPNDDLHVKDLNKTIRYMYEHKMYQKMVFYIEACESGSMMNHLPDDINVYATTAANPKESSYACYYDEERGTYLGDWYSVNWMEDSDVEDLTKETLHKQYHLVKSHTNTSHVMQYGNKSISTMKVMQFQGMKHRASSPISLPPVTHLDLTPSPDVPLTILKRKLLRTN

cathepsins [3] = assay: Off-target labeling of cathepsins in intact RAW 264.7 macrophages; assay type: cell-based; conditions: for labeling of cathepsins: high concentrations; for cross reactivity towards lysosomal cathepsins: intact RAW 264.7 macrophages
Protocol: Immunoprecipitation of cathepsins in intact raw 264.7 cells. […] High concentration of LP-1 was used to bring out all the off-target labeling in intact cells.
RAW 264.7 macrophages (600,000 cells/well) were seeded in a 6 well plate 24 hrs prior to labeling. […] High concentration of LP-1 was used to bring out all the off-target labeling in intact cells. Cells were washed with PBS buffer and lysed by addition of citrate-phosphate lysis buffer (50 mM citrate-phosphate, 1% CHAPS, 0.5% Triton, 5 mM DTT, pH 4.5). 20 μL of crude lysates were diluted to […] in RIPA buffer (phosphate-buffered saline, 0.5% NP-40, 1 mM EDTA, pH 7.4). Anti-mouse cathepsin B (E Weber Halle), anti-mouse cathepsin L (R&D Systems), anti-goat cathepsin S (Abchem) and anti-human cathepsin S (R&D Systems) were added and mixed for 15 mM at 0° C. 40 μL of Protein A/G Plus Agarose beads (Santa Cruz Biotechnology) were added and mixed overnight at 4° C. Samples were spun down and supernatant and beads were separated. Beads were washed with RIPA buffer and boiled after addition of sample buffer 2× (20% glycerol, 100 mM Tris HCl, pH 6.8, 6% SDS, and 10% b-mercaptoethanol). Acetone was added to the supernatant and kept at −80° C. for 2 h. Precipitated proteins were collected by centrifugation in the cold for 30 min, dried, and dissolved by boiling in sample buffer. Samples without immunoprecipitation (input), pellets (P) and supernatant (S) were separated on a 12.5% SDS-PAGE and visualized by scanning of the gel with a Typhoon flatbed laser scanner (excitation/emission 633/680 nm).
as §2, with “This could be explained by the fact that cathepsins are known to be substrates for legumain (3, 23), thus legumain inhibition could result in increased levels of cathepsins and therefore increased non-specific labeling by the legumain probes.” left out
RAW 264.7 cells (250,000 cells/well) and NIH-3T3 cells (200,000 cells/well) were seeded in a 24 well plate 24-30 hrs prior to labeling. […] Labeled proteins were analyzed by scanning the gel with a Typhoon flatbed laser scanner (ex. 633 nM/em. 680 nM). […] The labeled samples were separated by 12.5% SDS-PAGE and analyzed by scanning the gel with a Typhoon flatbed scanner.

legumain [4] = biological target: T1, legumain; assay: Direct labeling of legumain in RAW cell lysates; assay type: biochemical
Protocol: as §3
Target sequence in this assay (O89017 18-435): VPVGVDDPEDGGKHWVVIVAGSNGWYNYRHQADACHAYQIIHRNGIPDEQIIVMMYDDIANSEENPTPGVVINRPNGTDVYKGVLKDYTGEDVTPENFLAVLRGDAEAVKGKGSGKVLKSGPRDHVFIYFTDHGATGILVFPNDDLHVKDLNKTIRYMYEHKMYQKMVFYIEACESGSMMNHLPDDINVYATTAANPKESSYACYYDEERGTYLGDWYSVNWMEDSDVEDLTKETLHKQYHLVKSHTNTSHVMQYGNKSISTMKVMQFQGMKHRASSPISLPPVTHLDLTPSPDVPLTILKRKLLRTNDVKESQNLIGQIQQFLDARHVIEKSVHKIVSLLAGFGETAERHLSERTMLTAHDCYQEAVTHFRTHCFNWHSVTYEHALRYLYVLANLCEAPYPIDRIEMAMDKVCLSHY
We believe that this cross-reactivity results from increased lysosomal uptake and is not the result of a loss of specificity as the result of addition of the tat peptide. […] We also performed a competition assay by pre-treating RAW lysates with each probe and labeling with the general cathepsin probe, I^125_DCG04 (25).

cathepsins [5] = assay: Competitive inhibition of cathepsins in RAW cell lysates, labeled by 125I-DCG04; assay type: biochemical; conditions: competition with 125I-DCG04
Description: To test this hypothesis, we labeled RAW cell lysates with LP-1 and tLP-1 (FIG. 9).

legumain [6] = biological target: T1, legumain; assay: In vivo fluorescence imaging of mice bearing C2C12/ras xenograft tumors; conditions: IV tail vein, 25 nmol probe
Protocol: In order to examine in vivo properties of LP-1 and monitor active legumain levels non-invasively, we performed imaging experiments using a simple tumor xenograft model (C2C 1 2/Hras 1)(24). […] Mice were injected with the probes via tail vein and fluorescent images were collected over the course of 5 hrs. […] Furthermore, the specific legumain signal was reduced to background levels after 120 min. This is in contrast to the previously reported cathepsin probes which only provide contrast after 8-12 hours and signals are retained beyond 48 hours.
(§4) In vivo/ex vivo imaging and SDS-PAGE analysis of organ lysates was conducted as follows: Tumor bearing mice were prepared by following the previously described method (24). C2C12/Hras1 or MDA-MB 231 MFP cells ([…]) were injected subcutaneously on 4-8 week old male BALB/c nude mice. 14 days after transplantation, each probe (25 nmol in 100˜L of sterile PBS) was injected via the tail vein into tumor-bearing mice. Mice were imaged at various time points after injection using the IVIS 200 imaging system equipped with a Cy5.5 filter. Relative fluorescence of equal-sized areas of tumor and background were measured using Living Image software (Caliper life science). Upon finishing the last time point of imaging, mice were anesthetized and sacrificed by cervical dislocation. Tumors, livers, kidneys and spleens were collected and imaged ex vivo by using the FMT 2500 with a Cy5 filter. After ex vivo imaging, organs were lysed by a dounce homogenizer in muscle lysis buffer (1% Triton X-100, 0.1% SDS, 0.5% sodium deoxycholate, 0.2% sodium azide in PBS, pH 7.2). Total protein extracts (100˜g each) were separated by SDS-PAGE and visualized by scanning the gel with a Typhoon flatbed laser scanner.
Target sequence in this assay (O89017 18-435): as above

legumain [7] = biological target: T1, legumain; assay: Ex vivo imaging of organs and SDS-PAGE analysis of organ lysates; assay type: in vivo, mice
Protocol: as §4
Target sequence in this assay (O89017 18-435): as above

[8] = read-out: Cathepsin L IC50, at 30 min

cathepsin L, sequence (P07711 114-333, species assumed): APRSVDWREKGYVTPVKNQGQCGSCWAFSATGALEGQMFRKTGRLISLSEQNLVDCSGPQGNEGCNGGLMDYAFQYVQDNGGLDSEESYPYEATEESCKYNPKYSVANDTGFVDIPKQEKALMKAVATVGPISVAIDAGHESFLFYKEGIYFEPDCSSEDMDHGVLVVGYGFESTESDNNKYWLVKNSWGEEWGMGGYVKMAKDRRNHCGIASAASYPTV
recombinant legumain, sequence (Q99538 18-433, species assumed): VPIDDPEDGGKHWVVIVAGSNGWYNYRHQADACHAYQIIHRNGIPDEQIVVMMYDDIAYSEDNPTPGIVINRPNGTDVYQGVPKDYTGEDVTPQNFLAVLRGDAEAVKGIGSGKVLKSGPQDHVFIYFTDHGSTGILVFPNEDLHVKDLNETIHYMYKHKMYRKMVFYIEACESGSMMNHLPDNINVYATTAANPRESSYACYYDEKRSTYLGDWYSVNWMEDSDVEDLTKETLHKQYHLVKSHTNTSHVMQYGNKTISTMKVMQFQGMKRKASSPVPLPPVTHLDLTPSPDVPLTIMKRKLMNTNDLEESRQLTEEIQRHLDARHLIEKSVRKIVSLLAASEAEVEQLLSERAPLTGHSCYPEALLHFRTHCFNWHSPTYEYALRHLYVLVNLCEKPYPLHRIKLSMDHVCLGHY
caspase-3, sequence (P42574 29-175, species assumed): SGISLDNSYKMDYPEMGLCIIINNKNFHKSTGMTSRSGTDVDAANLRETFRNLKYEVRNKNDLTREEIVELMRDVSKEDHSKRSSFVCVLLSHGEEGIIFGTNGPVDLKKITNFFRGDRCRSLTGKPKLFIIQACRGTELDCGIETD
caspase-3, sequence (P42574 176-277, species assumed): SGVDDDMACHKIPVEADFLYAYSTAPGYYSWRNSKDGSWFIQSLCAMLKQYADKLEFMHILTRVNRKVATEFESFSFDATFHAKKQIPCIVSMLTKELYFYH

For `CC(=O)N1CCC[C@H]1C(=O)N[C@@H](CC(=O)O)C(=O)COC(=O)c1c(C)cccc1C` [LI-0, reference compound], the “Legumain kobs/[I] (second-order rate constant)” value (“Legumain kobs/[I]” below) (recombinant legumain) was 1586 M⁻¹ s⁻¹, the pIC50 (recombinant legumain) was 6.15 and the “Legumain kobs/[I]” value (recombinant legumain; listed as LI-O) was 1585 M⁻¹ s⁻¹. The pIC50 (caspase-3) was 5.55, the pIC50 (cathepsin B; read-out: Cathepsin B IC50, at 30 min) was under 3.00 and the pIC50 (cathepsin L; [8]) was under 3.00.
With `CCOC(=O)/C=C/C(=O)N(CC(N)=O)NC(=O)[C@@H]1CCCN1C(C)=O` [LI-2] the selectivity for legumain ([1]; FIG. 18) was “most selective for legumain” and the “inhibitory effect against other enzymes” value [1] was “no inhibitory effect”.
With `CCOC(=O)[C@@H]1O[C@H]1C(=O)N(CC(N)=O)NC(=O)C1CCCN1C(C)=O` (stereo partly drawn) [LI-1] the “Legumain kobs/[I]” value (recombinant legumain) was 72350 M⁻¹ s⁻¹ and 72352 M⁻¹ s⁻¹, the “potency and rate of legumain inhibition, comparison of inhibitors” value (recombinant legumain; FIG. 18) was “greater potency and rate than either Li-2 or LI-0” and the pIC50 (recombinant legumain) was 7.94. The “inhibitory effect against other enzymes” value [1] was “no inhibitory effect”, the pIC50 (caspase-3) was 3.05 and the pIC50 (cathepsin L; [8]) was 3.66.
`CCOC(=O)C1OC1C(=O)N(CC(N)=O)NC(=O)C1CCCN1C(=O)CCCCCNC(=O)CCCCCN1C(=CC=CC=CC2=[N+](CC)c3ccc(S(=O)(=O)O)cc3C2(C)C)C(C)(C)c2cc(S(=O)(=O)O)ccc21` (stereo not drawn) [LP-1] was tested, and the “labeling of active legumain” value (legumain [2]) was “selectively labeled active legumain”, the “labeling of active legumain” value (legumain [2]; listed as LP-I) was “labeled active legumain more efficiently than LP-0 at low probe concentrations” and the labeling of cathepsins (cathepsins [3]) was “labeled cathepsins only at high concentrations or when legumain activity is suppressed”. For the same compound, the “cross reactivity towards lysosomal cathepsins” value (cathepsins [3]) was “some degree of cross reactivity towards lysosomal cathepsins”, the reactivity towards legumain (legumain [4]) was “no difference in reactivity towards legumain” and the inhibition of cathepsins (cathepsins [5]) was “equally poor inhibitors of the cathepsins”. For the same compound, the “accumulation / selective uptake in tumor” value (legumain [6]) was “rapidly accumulated in tumor tissues”, the “time after which specific legumain signal was reduced to background levels” value (legumain [6]) was 120 min and the “time of maximum tumor signal to background ratio” value (legumain [6]) was “around 90 min”. The “legumain labeling in tumors, organ distribution and cathepsin cross reactivity” value (legumain [7]; ex vivo organs and SDS-PAGE of lysates) was “the most legumain labeling in tumors as well as the highest levels of legumain-specific fluorescent signal” and the “selectivity of legumain labeling in vivo” value (legumain [7]; organ extracts, SDS-PAGE) was “remarkably selective toward legumain in vivo and showed virtually no off-target labeling”.
In the case of `CC[N+]1=C(/C=C/C=C/C=C2/N(CCCCCC(=O)NCCCCCC(=O)N3CCC[C@H]3C(=O)N[C@@H](CC(=O)O)C(=O)COC(=O)c3c(C)cccc3C)c3ccc(S(=O)(=O)O)cc3C2(C)C)C(C)(C)c2cc(S(=O)(=O)O)ccc21` [LP-0, reference compound], the “labeling of active legumain” value (legumain [2]) was “selectively labeled active legumain” and the “cross reactivity towards lysosomal cathepsins” value (cathepsins [3]) was “some degree of cross reactivity towards lysosomal cathepsins”.
`CCOC(=O)[C@H]1O[C@@H]1C(=O)N[C@@H](CC(C)C)C(=O)NCCc1ccc(O)cc1` [JPM-OEt, reference compound] showed a pIC50 (cathepsin B) of 6.11 and a pIC50 (cathepsin L) of 5.53.
`CCOC(=O)/C=C/C(=O)N(CC(N)=O)NC(=O)[C@@H]1CCCN1C(=O)CCCCCNC(=O)CCCCCN1/C(=C/C=C/C=C/C2=[N+](CC)c3ccc(S(=O)(=O)O)cc3C2(C)C)C(C)(C)c2cc(S(=O)(=O)O)ccc21` [LP-2] was tested, and the labeling of cathepsins (cathepsins [3]) was “did not label any cathepsins at high concentrations”.
